Results published in the supplement of paper PMC10702517.
± gives the standard deviation.

Experiments:
[1] = chemical recovery by SPE of plasma after PDMS sampling; higher = better extraction; conditions: pooled human plasma, extraction method: HLB SPE of plasma after PES
[2] = chemical recovery into PDMS from spiked human plasma; higher = better extraction; conditions: pooled human plasma, extraction method: PES with PDMS
[3] = chemical recovery from spiked human plasma; higher = better extraction; conditions: pooled human plasma
[4] = extraction method: SPE only (HLB 96-well), PES comparison experiment
[5] = extraction method: SPE only (HLB 96-well)
[6] = extraction method: solvent precipitation (ACN + hexane)
[7] = extraction method: PES+SPE (3 d PDMS equilibration then HLB SPE)
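Wherever chemical recovery by SPE of plasma after PDMS sampling is given: over 400 spiked chemicals quantified by LC-HRMS or GC-HRMS via internal standard calibration, recovery relative to spike mix added to unspiked plasma extract to correct matrix effects.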

| chemical recovery by SPE of plasma ([1]; equilibration time (d): 3) | chemical recovery into PDMS ([2]; equilibration time (d): 1) | chemical recovery into PDMS ([2]; equilibration time (d): 3) | chemical recovery into PDMS ([2]; equilibration time (d): 6) | chemical recovery [3, 4] | chemical recovery [3, 5] | chemical recovery by SPE of plasma ([1]; equilibration time (d): 1) | chemical recovery by SPE of plasma ([1]; equilibration time (d): 6) | chemical recovery [3, 7] | Compound | chemical recovery [3, 6] |
| --- | --- | --- | --- | --- | --- | --- | --- | --- | --- | --- |
| 53.2 ± 3.3% | 1.52 ± 0.65% | 4.53 ± 1.1% | 4.86 ± 0.99% | 49 ± 7.5% | – | – | – | – | C[C@H]1C[C@H]2[C@@H]3CCC4=CC(=O)C=C[C@]4(C)[C@@]3(F)[C@@H](O)C[C@]2(C)[C@@]1(O)C(=O)CCl [Clobetasol] | – |
| 0.676 ± 1.2% | 40.3 ± 0.95% | 42.9 ± 4.2% | 43 ± 5.5% | 44.4 ± 7.8% | 3.33 ± 1.6% | – | – | – | CCOC(=O)C(C)(C)Oc1ccc(Cl)cc1 [Clofibrate] | 23 ± 10% |
| 12.7 ± 1.8% | 7.21 ± 0.54% | 8.62 ± 0.81% | 6.38 ± 5.7% | 39.6 ± 6.6% | 41.2 ± 3.6% | 13.4 ± 3.1% | 12.3 ± 3.9% | 28.5 ± 5.5% | Clc1cccc(Cl)c1NC1=NCCN1 [Clonidine] | 60.3 ± 8.8% |
| 1.02 ± 0.078% | 26.7 ± 8.6% | 25.5 ± 7.8% | 28.3 ± 5.4% | 39.3 ± 7.1% | – | 0.677 ± 0.17% | 0.597 ± 0.026% | – | COC(=O)[C@H](c1ccccc1Cl)N1CCc2sccc2C1 [Clopidogrel] | 78.1 ± 6.1% |
| 1.11 ± 0.26% | 0.000645 ± 0.0011% | – | – | 27.7 ± 11% | 39.1 ± 3.5% | 1.19 ± 0.08% | 0.544 ± 0.065% | 0.74 ± 0.14% | CN1CCN(C2=Nc3cc(Cl)ccc3Nc3ccccc32)CC1 [Clozapine] | 68.3 ± 3.6% |
| 2.33 ± 0.49% | 6.6 ± 0.43% | 10.6 ± 2.5% | 11.6 ± 1.5% | – | 6.77 ± 2.8% | 6.83 ± 6.3% | 4.13 ± 1.4% | 23.3 ± 6.5% | CN1C(=O)CC[C@H]1c1cccnc1 [Cotinine] | 80.5 ± 3.5% |
| 5.41 ± 0.92% | – | 0.0113 ± 0.022% | 0.00679 ± 0.0059% | – | 7.88 ± 2.3% | 7.95 ± 6.1% | 8.35 ± 3.4% | 5.77 ± 0.89% | O=S(=O)(O)NC1CCCCC1 [Cyclamate] | 71.8 ± 4.1% |
| 4.61 ± 0.52% | 34.4 ± 3.3% | 39 ± 1.6% | 39.5 ± 1.2% | 44.8 ± 7% | – | 7.2 ± 0.97% | 2.35 ± 0.21% | – | CC(=O)[C@@]1(O)CC[C@H]2[C@@H]3C=C(Cl)C4=CC(=O)[C@@H]5C[C@@H]5[C@]4(C)[C@H]3CC[C@@]21C [Cyproterone] | – |
| 26.3 ± 3.2% | 11.2 ± 0.61% | 16.9 ± 1.5% | 18.5 ± 2.4% | 51 ± 8.1% | 45.4 ± 3.1% | 30.4 ± 3.7% | 19 ± 2.4% | 61.1 ± 5.3% | CC(C)Nc1nc(N)nc(Cl)n1 [Desethylatrazine] | 45 ± 15% |
| 9.29 ± 1% | 38 ± 1.5% | 40.9 ± 0.82% | 42.7 ± 1.9% | 46.9 ± 5.4% | 42.1 ± 2.3% | 10 ± 1.1% | 6.03 ± 0.45% | 40.7 ± 4.8% | CC(C)(C)Nc1nc(N)nc(Cl)n1 [Desethylterbutylazine] | – |
| 4.32 ± 0.44% | 0.203 ± 0.15% | 0.0639 ± 0.025% | 0.452 ± 0.57% | – | 30.1 ± 1.7% | 3.67 ± 0.83% | 2.93 ± 0.67% | 2.22 ± 0.35% | Clc1ccc2c(c1)CCc1cccnc1C2=C1CCNCC1 [Desloratadine] | 59.9 ± 1.8% |
| 2.06 ± 0.86% | 0.0144 ± 0.043% | 0.133 ± 0.038% | 0.161 ± 0.2% | 6.79 ± 4.2% | – | 2.76 ± 0.75% | 3.77 ± 0.81% | – | Nc1cn[nH]c(=O)c1Cl [Desphenyl chloridazon] | – |
| 53.3 ± 3.2% | 0.000876 ± 0.0015% | 0.000445 ± 0.00077% | – | 50.3 ± 3.3% | – | 46.9 ± 7.3% | 48 ± 4.5% | – | COCCN(C(=O)CS(=O)(=O)O)c1c(C)cccc1C [Dimethachlor ESA] | – |
| 69.4 ± 2.3% | – | – | 0.00348 ± 0.006% | 51.3 ± 3.7% | 28.1 ± 6.4% | 60.2 ± 9.2% | 61.4 ± 2.8% | – | COCCN(C(=O)C(=O)O)c1c(C)cccc1C [Dimethachlor OA] | 56.8 ± 7.6% |

| Compound | chemical recovery by SPE of plasma ([1]; equilibration time (d): 3) | chemical recovery into PDMS ([2]; equilibration time (d): 1) | chemical recovery into PDMS ([2]; equilibration time (d): 3) | chemical recovery into PDMS ([2]; equilibration time (d): 6) | chemical recovery [3, 4] | chemical recovery [3, 5] | chemical recovery by SPE of plasma ([1]; equilibration time (d): 1) | chemical recovery by SPE of plasma ([1]; equilibration time (d): 6) | chemical recovery [3, 7] | chemical recovery [3, 6] |
| --- | --- | --- | --- | --- | --- | --- | --- | --- | --- | --- |
| CN/C(=N\[N+](=O)[O-])NCc1cnc(Cl)s1 [Clothianidin] | 62.2 ± 5.3% | 0.813 ± 0.031% | 1.39 ± 0.29% | 1.64 ± 0.42% | 50.9 ± 5.5% | 55.1 ± 3.7% | 59.2 ± 6.8% | 57 ± 2.6% | 54 ± 1.1% | 75.8 ± 4.7% |
| Cc1cc(C2CC2)nc(Nc2ccccc2)n1 [Cyprodinil] | 0.733 ± 0.65% | 33.5 ± 1.8% | 36.1 ± 3.9% | 36.2 ± 1.2% | 38.5 ± 5.9% | – | 0.89 ± 0.78% | 0.362 ± 0.33% | – | 69.9 ± 3.2% |
| Nc1nc(N)nc(NC2CC2)n1 [Cyromazine] | – | – | – | 1.4 ± 0.44% | – | 2.36 ± 2.5% | – | 5.59 ± 4.5% | 3.13 ± 0.61% | 72.9 ± 2.3% |
| CN(C)NC(=O)CCC(=O)O [Daminozide] | 0.206 ± 0.36% | – | – | 0.0133 ± 0.023% | 3.23 ± 3.4% | – | 1.49 ± 2.5% | 0.536 ± 0.28% | – | – |
| CN1C(=O)CN=C(c2ccccc2)c2cc(Cl)ccc21 [Diazepam] | 6.7 ± 0.88% | 34.5 ± 1.3% | 40.4 ± 3.4% | 39.3 ± 2% | 45.5 ± 6.9% | 56.2 ± 2.7% | 9.29 ± 2% | 4.56 ± 0.4% | 66.5 ± 10% | 85.2 ± 3.9% |
| CCOP(=S)(OCC)Oc1cc(C)nc(C(C)C)n1 [Diazinon] | 0.223 ± 0.071% | 31.2 ± 2.3% | 34 ± 2.4% | 34 ± 0.57% | 38 ± 6.1% | – | 0.161 ± 0.14% | 0.073 ± 0.064% | – | 62.9 ± 4.1% |
| Oc1ccc(Cl)cc1Cc1cc(Cl)ccc1O [Dichlorophen] | – | 0.919 ± 0.12% | 1.88 ± 0.2% | 2.38 ± 0.74% | 50.4 ± 7.8% | – | 53.2 ± 21% | – | 78.9 ± 10% | 45.7 ± 2.1% |
| OC(c1ccc(Cl)cc1)(c1ccc(Cl)cc1)C(Cl)(Cl)Cl [Dicofol] | 15 ± 1.5% | – | 56.9 ± 18% | – | 14.4 ± 2.8% | 0.108 ± 0.017% | 11.5 ± 8.1% | 15.2 ± 3.4% | – | 23.1 ± 0.7% |
| ClC1=C(Cl)[C@]2(Cl)[C@@H]3[C@@H]4C[C@@H]([C@H]5O[C@@H]45)[C@@H]3[C@@]1(Cl)C2(Cl)Cl [Dieldrin] | – | – | – | 97 ± 29% | 8.32 ± 1.5% | 0.809 ± 0.21% | 0.594 ± 1% | – | – | 22.5 ± 1.4% |
| O=C(NC(=O)c1c(F)cccc1F)Nc1ccc(Cl)cc1 [Diflubenzuron] | 8.73 ± 0.29% | 36.3 ± 2.5% | 38.3 ± 2.3% | 40.4 ± 5% | – | 29.8 ± 6.3% | 8.71 ± 3.2% | 4.73 ± 0.29% | – | 48.6 ± 2.1% |
| COCCN(C(=O)CCl)c1c(C)cccc1C [Dimethachlor] | 2.96 ± 0.38% | 34.9 ± 0.41% | 37.6 ± 4.3% | 38 ± 0.68% | 47.8 ± 7.7% | 46.6 ± 1.6% | 2.27 ± 0.1% | 1.66 ± 0.09% | 45.9 ± 7% | 63.4 ± 4.6% |
| COCC(C)N(C(=O)CCl)c1c(C)csc1C (stereo not drawn) [Dimethenamid] | 2.08 ± 0.36% | 41.5 ± 0.65% | 46.1 ± 4.6% | 44.9 ± 2.2% | 46.6 ± 8.4% | 53.9 ± 1.1% | 1.45 ± 0.053% | 1.25 ± 0.1% | 59.7 ± 19% | 55.4 ± 3.7% |
